Key:
Format in all cases: biochemical
HER2 = target: T1, HER2 (Homo sapiens, UniProt P04626); assay: kinase inhibition assay (ADP-Glo)
T1 construct: gene ERBB2

JAK3 = target: T2, JAK3 (Homo sapiens, UniProt P52333); assay: kinase inhibition assay (ADP-Glo)
T2 sequence (P52333 1-1124): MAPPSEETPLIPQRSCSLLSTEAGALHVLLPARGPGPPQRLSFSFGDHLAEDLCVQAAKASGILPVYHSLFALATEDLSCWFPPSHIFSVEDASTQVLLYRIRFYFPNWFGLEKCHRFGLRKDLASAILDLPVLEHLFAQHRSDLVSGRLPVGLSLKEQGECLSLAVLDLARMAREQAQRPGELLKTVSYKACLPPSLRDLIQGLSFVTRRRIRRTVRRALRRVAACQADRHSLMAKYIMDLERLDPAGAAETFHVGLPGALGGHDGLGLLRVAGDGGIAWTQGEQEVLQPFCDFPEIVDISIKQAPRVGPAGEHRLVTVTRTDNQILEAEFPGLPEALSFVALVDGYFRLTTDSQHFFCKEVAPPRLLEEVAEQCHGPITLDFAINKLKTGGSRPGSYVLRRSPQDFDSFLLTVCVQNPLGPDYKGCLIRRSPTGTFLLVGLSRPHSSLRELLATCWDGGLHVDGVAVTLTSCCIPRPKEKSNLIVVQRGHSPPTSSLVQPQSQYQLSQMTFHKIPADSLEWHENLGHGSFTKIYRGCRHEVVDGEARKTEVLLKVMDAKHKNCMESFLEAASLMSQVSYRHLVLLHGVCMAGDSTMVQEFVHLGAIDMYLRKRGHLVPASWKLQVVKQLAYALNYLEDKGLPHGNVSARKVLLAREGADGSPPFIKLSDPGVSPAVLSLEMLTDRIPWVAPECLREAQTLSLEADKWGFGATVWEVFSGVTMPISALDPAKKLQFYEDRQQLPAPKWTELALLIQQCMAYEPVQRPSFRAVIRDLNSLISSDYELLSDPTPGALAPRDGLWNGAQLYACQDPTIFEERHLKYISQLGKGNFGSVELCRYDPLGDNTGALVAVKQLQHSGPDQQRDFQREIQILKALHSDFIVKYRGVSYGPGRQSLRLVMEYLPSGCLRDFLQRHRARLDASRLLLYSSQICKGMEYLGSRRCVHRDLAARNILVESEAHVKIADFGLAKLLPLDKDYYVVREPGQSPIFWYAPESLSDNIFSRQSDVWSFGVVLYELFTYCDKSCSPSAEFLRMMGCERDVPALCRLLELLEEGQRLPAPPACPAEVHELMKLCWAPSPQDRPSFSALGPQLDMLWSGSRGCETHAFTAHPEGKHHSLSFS

[1] = target: T3, EGFR-TK (epidermal growth factor receptor tyrosine kinase) (Homo sapiens, UniProt P00533); assay: ADP-Glo kinase assay
T3 construct: tyrosine kinase (TK) domain
T3 sequence (P00533 712-979 limits assumed): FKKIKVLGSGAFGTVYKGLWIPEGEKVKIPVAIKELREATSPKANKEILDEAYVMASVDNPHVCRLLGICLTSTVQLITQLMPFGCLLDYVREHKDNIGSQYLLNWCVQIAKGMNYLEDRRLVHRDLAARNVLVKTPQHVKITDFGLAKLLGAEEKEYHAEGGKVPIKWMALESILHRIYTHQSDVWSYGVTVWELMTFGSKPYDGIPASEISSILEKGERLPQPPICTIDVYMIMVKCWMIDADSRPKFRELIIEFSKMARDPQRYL

T1 sequence (P04626 23-1255): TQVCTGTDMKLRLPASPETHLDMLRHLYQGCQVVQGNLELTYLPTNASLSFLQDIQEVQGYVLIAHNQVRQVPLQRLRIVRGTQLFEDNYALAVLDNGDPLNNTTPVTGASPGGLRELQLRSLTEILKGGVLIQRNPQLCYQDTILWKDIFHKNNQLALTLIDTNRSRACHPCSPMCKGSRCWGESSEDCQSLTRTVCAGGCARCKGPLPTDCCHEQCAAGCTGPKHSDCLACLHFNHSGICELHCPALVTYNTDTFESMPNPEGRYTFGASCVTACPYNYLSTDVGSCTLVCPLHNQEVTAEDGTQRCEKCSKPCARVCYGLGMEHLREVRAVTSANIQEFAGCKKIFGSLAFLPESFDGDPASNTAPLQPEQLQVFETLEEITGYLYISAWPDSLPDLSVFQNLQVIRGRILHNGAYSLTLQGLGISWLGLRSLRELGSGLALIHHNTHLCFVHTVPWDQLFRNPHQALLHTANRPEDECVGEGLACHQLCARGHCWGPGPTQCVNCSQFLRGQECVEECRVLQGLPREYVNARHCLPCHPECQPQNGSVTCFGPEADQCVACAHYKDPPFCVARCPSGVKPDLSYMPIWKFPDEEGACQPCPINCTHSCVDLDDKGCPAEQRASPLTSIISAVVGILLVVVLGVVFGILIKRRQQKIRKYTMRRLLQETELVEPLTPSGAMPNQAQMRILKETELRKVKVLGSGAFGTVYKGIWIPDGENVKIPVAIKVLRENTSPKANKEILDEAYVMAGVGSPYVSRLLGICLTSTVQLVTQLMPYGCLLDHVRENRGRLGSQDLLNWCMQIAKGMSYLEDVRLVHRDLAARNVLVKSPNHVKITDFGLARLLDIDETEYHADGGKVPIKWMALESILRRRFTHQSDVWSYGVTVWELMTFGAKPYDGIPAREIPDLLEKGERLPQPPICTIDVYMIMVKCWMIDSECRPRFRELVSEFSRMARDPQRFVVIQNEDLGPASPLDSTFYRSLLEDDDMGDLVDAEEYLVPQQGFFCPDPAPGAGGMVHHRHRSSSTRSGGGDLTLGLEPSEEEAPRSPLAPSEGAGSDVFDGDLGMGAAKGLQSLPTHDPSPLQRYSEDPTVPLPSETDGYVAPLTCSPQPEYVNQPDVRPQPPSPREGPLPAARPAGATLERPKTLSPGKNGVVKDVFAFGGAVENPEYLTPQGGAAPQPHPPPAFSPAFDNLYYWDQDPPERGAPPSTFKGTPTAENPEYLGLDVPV

For COc1cc(/C=C/S(=O)(=O)c2ccccc2)cc(OC)c1OC [VF16], the IC50 (HER2) was 312 ± 0.28 nM, the IC50 (JAK3) was 158 ± 4.75 nM and the IC50 [1] was 7.85 ± 0.88 nM.

Source: paper PMC8069501, “Identification of Vinyl Sulfone Derivatives as EGFR Tyrosine Kinase Inhibitor: In Vitro and In Silico Studies” (Molecules, 2021)
